Results from patent publication US20240287080A1 (IDEAYA Biosciences Inc., priority 2021, published 2024).

Target: T1, Pol theta (1-899) (Homo sapiens, UniProt O75417)
T1 construct: Pol theta (1-899) (5 nM) in assay buffer
Experiment: Pol theta ATPase activity, NADH oxidation-coupled enzymatic assay (ATPase NADH coupling: Standard Screening: hPolQ)
Assay type: biochemical
Settings: Pol theta (1-899) 5 nM, NADH oxidation-coupled ATPase assay; compounds of Table 3
How it was run: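 Rates of ATP hydrolysis taken from 60-min A340 traces of NADH oxidation via PK/LDH coupling, then fit four-parameter for IC50, Hill slope and max inhibition. Enzyme (5 nM, 1-899) and compounds preincubated 15 min before ATP 100 μM and 50-thymine ssDNA 300 nM (stock, equal volume added).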

T1 sequence (O75417 1-899): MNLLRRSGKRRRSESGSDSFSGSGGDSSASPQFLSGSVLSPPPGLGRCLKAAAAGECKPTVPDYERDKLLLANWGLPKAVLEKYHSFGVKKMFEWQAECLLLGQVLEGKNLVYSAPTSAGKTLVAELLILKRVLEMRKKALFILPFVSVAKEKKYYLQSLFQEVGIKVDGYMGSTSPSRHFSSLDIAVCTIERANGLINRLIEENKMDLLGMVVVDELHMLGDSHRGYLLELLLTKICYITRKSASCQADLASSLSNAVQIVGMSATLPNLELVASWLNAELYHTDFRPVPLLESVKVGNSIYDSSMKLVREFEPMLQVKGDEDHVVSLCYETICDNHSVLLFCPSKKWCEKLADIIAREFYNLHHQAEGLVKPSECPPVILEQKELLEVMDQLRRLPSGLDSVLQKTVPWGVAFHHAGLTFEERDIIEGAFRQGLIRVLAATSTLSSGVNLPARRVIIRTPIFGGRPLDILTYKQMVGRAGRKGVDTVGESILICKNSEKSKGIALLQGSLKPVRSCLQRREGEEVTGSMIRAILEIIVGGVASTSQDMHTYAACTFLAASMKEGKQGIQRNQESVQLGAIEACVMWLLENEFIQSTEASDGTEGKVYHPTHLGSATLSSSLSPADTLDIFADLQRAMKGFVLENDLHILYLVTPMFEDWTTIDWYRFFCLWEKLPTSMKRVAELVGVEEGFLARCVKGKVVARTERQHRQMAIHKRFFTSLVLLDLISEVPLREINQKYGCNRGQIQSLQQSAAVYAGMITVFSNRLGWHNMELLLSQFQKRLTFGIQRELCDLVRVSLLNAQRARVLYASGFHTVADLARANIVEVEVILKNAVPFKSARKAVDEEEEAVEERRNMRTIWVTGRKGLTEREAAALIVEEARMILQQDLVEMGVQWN

SMILES	IC50
COc1nnc(NC(=O)c2cnc(C)cc2-c2ccc(C(=O)O)cc2)s1 [Example 366, 4-(5-((5-methoxy-1,3,4-thiadiazol-2-yl)carbamoyl)-2-methylpyridin-4-yl)benzoic acid]	1000 to 10000 nM
COc1nnc(NC(=O)c2cnc(C)cc2-c2cccc3c2ccn3C)s1 [Example 482, N-(5-methoxy-1,3,4-thiadiazol-2-yl)-6-methyl-4-(1-methyl-1H-indol-4-yl)pyridine-3-carboxamide]	1000 to 10000 nM
COc1cnc(Cl)cc1-c1cc(C)ncc1C(=O)Nc1nnc(O[C@@H]2C[C@@H]3C[C@H]2C[C@H]3O)s1 (single isomer, unassigned) [Example 263]	≤ 200 nM
COc1cnc(C)c(F)c1-c1cc(C)ncc1C(=O)Nc1nnc(OC2([C@H]3CCOC3)CC2)s1 (single isomer, unassigned) [Example 287]	≤ 200 nM
COc1nnc(NC(=O)c2cnc(C)cc2-c2ccc3c(c2)NC(=O)CO3)s1 [Example 346, N-(5-methoxy-1,3,4-thiadiazol-2-yl)-6-methyl-4-(3-oxo-3,4-dihydro-2H-1,4-benzoxazin-6-yl)pyridine-3-carboxamide]	1000 to 10000 nM
COc1nnc(NC(=O)c2cnc(C)cc2-c2ccc(C)cc2C)s1 [Example 386, 4-(2,4-dimethylphenyl)-N-(5-methoxy-1,3,4-thiadiazol-2-yl)-6-methylpyridine-3-carboxamide]	500 to 1000 nM
CCOc1cc(C(=O)Nc2nnc(OC)s2)c(-c2cc(Cl)ncc2OC)cn1 [Example 276, 2′-chloro-6-ethoxy-5′-methoxy-N-(5-methoxy-1,3,4-thiadiazol-2-yl)-[3,4′-bipyridine]-4-carboxamide]	≤ 200 nM
COc1nnc(NC(=O)c2cnc(C)cc2-c2cccc(O)c2)s1 [Example 452, 4-(3-hydroxyphenyl)-N-(5-methoxy-1,3,4-thiadiazol-2-yl)-6-methylpyridine-3-carboxamide]	1000 to 10000 nM

Continued, values first:

IC50	SMILES
1000 to 10000 nM	COc1nnc(NC(=O)c2cnc(C)cc2-c2ccco2)s1 [Example 391, 4-(furan-2-yl)-N-(5-methoxy-1,3,4-thiadiazol-2-yl)-6-methylpyridine-3-carboxamide]
500 to 1000 nM	COc1nnc(NC(=O)c2cnc(C)cc2-c2ccc(F)cc2C)s1 [Example 428, 4-(4-fluoro-2-methylphenyl)-N-(5-methoxy-1,3,4-thiadiazol-2-yl)-6-methylpyridine-3-carboxamide]
1000 to 10000 nM	COc1nnc(NC(=O)c2cnc(C)cc2-c2ccc3occc(=O)c3c2)s1 [Example 438, N-(5-methoxy-1,3,4-thiadiazol-2-yl)-6-methyl-4-(4-oxo-4H-chromen-6-yl)nicotinamide]
500 to 1000 nM	COc1nnc(NC(=O)c2cnc(C)cc2-c2ccc3nccnc3c2)s1 [Example 341, N-(5-methoxy-1,3,4-thiadiazol-2-yl)-6-methyl-4-(quinoxalin-6-yl)pyridine-3-carboxamide]
≤ 200 nM	COc1cnc(Cl)cc1-c1cc(C)ncc1C(=O)Nc1nnc(OC2CCC23CCOC3)s1 (stereo not shown) [Example 296, N-(5-((6-oxaspiro[3.4]octan-1-yl)oxy)-1,3,4-thiadiazol-2-yl)-2′-chloro-5′-methoxy-6-methyl-[4,4′-bipyridine]-3-carboxamide]

Same assay, conditions: Table 4; Pol theta (1-899) 5 nM, ATP, dT50 ssDNA

IC50	SMILES
1000 to 10000 nM	COc1nnc(NC(=O)c2cnc(C)cc2-c2cc([C@H](C)O)ncc2OC)s1 (single isomer, unassigned) [Example 68]
500 to 1000 nM	COc1nnc(NC(=O)c2cnc(C)cc2-c2cc(N)ncc2OC)s1 [Example 73, 2′-amino-5′-methoxy-N-(5-methoxy-1,3,4-thiadiazol-2-yl)-6-methyl-(4,4′-bipyridine)-3-carboxamide]
≤ 200 nM	CCCOc1nnc(NC(=O)c2cnc(C)cc2-c2cc(Cl)ncc2OC)s1 [Example 37, 2′-chloro-5′-methoxy-6-methyl-N-(5-propoxy-1,3,4-thiadiazol-2-yl)-(4,4′-bipyridine)-3-carboxamide]
500 to 1000 nM	COc1nnc(NC(=O)c2cnc(C)cc2-c2cc(Cl)ncc2CO)s1 [Example 72, 2′-chloro-5′-(hydroxymethyl)-N-(5-methoxy-1,3,4-thiadiazol-2-yl)-6-methyl-(4,4′-bipyridine)-3-carboxamide]
500 to 1000 nM	COc1nnc(NC(=O)c2cnc(C)cc2-c2c(Cl)cccc2Cl)s1 [Example 34, 4-(2,6-dichlorophenyl)-N-(5-methoxy-1,3,4-thiadiazol-2-yl)-6-methylnicotinamide]
≤ 200 nM	COc1cnc(Cl)cc1-c1cc(C)ncc1C(=O)Nc1nnc(OCC(C)(C)O)s1 [Example 14, 2′-chloro-N-(5-(2-hydroxy-2-methylpropoxy)-1,3,4-thiadiazol-2-yl)-5′-methoxy-6-methyl-(4,4′-bipyridine)-3-carboxamide]
≤ 200 nM	COc1cnc(Cl)cc1-c1cc(C)ncc1C(=O)Nc1nnc(O[C@H]2CCO[C@@H]2C)s1 (single isomer, unassigned) [Example 77, 2′-chloro-5′-methoxy-6-methyl-N-(5-(((2r,3s)-2-methyltetrahydrofuran-3-yl)oxy)-1,3,4-thiadiazol-2-yl)-(4,4′-bipyridine)-3-carboxamide]
≤ 200 nM	C#CCOc1nnc(NC(=O)c2ccncc2-c2ccccc2OC)s1 [Example 1, 3-(2-methoxyphenyl)-N-(5-(prop-2-yn-1-yloxy)-1,3,4-thiadiazol-2-yl)isonicotinamide]

Same assay, conditions: Table 5; Pol theta (1-899) 5 nM, ATP, dT50 ssDNA

SMILES	IC50
COc1cnc(Cl)cc1-c1cc(C)ncc1C(=O)Nc1nnc(O[C@@H]2CCC[C@@H](O)C2)s1 (single isomer, unassigned) [Example 162]	≤ 200 nM
COc1cnc(Br)c(F)c1-c1cc(C)ncc1C(=O)Nc1nnc(O[C@@H]2CCOC2)s1 [Example 201, 2′-bromo-3′-fluoro-5′-methoxy-6-methyl-N-(5-(((R)-tetrahydrofuran-3-yl)oxy)-1,3,4-thiadiazol-2-yl)-(4,4′-bipyridine)-3-carboxamide]	≤ 200 nM
COCc1cc(-c2cc(Cl)ncc2OC)c(C(=O)Nc2nnc(O[C@@H]3CCOC3)s2)cn1 [Example 142, (R)-2′-chloro-5′-methoxy-6-(methoxymethyl)-N-(5-((tetrahydrofuran-3-yl)oxy)-1,3,4-thiadiazol-2-yl)-(4,4′-bipyridine)-3-carboxamide]	≤ 200 nM
COc1cnc(C)c(F)c1-c1cc(C)ncc1C(=O)Nc1nnc(O[C@H]2CC[C@H](O)CC2)s1 [Example 202, 3′-fluoro-N-(5-(((1r,4r)-4-hydroxycyclohexyl)oxy)-1,3,4-thiadiazol-2-yl)-5′-methoxy-2′,6-dimethyl-(4,4′-bipyridine)-3-carboxamide]	≤ 200 nM

Other lines, results leading:

IC50	SMILES
≤ 200 nM	COc1cnc(Cl)c(F)c1-c1cc(C)ncc1C(=O)Nc1nnc(O[C@H]2CCOC2)s1 [Example 81, 2′-chloro-3′-fluoro-5′-methoxy-6-methyl-N-(5-(((S)-tetrahydrofuran-3-yl)oxy)-1,3,4-thiadiazol-2-yl)-(4,4′-bipyridine)-3-carboxamide]
≤ 200 nM	Cc1cc(-c2cc(Br)ncc2OC(F)F)c(C(=O)Nc2nnc(O[C@@H]3CCOC3)s2)cn1 [Example 195, (R)-2′-bromo-5′-(difluoromethoxy)-6-methyl-N-(5-((tetrahydrofuran-3-yl)oxy)-1,3,4-thiadiazol-2-yl)-(4,4′-bipyridine)-3-carboxamide]
≤ 200 nM	COc1cnc(Cl)cc1-c1cc(C)ncc1C(=O)Nc1nnc(O[C@@H]2CCO[C@H]2C)s1 (single isomer, unassigned) [Example 116]
